Converted amounts (≈) assume the structure as drawn. Where two headings read alike, the source gives them in different places.
Legend:
[1] = molecular target: Pseudomonas aeruginosa LpxC enzyme (Pseudomonas aeruginosa (strain ATCC 15692 / DSM 22644 / CIP 104116 / JCM 14847 / LMG 12228 / 1C / PRS 101 / PAO1), UniProt P47205); test: IC50 Assay, LpxC Enzyme from P. aeruginosa (PA LpxC Enzyme IC50); format: biochemical
Outline: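 Reaction run 1 h then stopped with 1N HCl. Conversion measured by RapidFire high-throughput mass spectrometry. IC50 derived from percent conversion relative to a no-enzyme control.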

[2] = system: Pseudomonas aeruginosa UI-18: Wild-type (PA-7); test: MIC determination (CLSI), PA-7; format: cell-based; conditions: for MIC: Pseudomonas aeruginosa
Outline: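 MIC by dilution method per CLSI M7-A7 and M100-S18 guidelines. Strain: wild-type Pseudomonas aeruginosa UI-18.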

[3] = system: Escherichia coli EC-1: VOGEL, mouse virulent; test: MIC determination (CLSI), EC-1; format: cell-based; conditions: for MIC: Escherichia coli
Outline: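 E. coli Vogel, a mouse-virulent strain (EC-1), was tested. MICs were set by dilution susceptibility testing per CLSI standards M7-A7/M100-S18.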

[4] = system: Klebsiella pneumoniae: Ciprofloxacin-resistant isolate, ESBL, clinical isolate (KP-3700); test: MIC determination (CLSI), KP-3700; format: cell-based
Outline: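 MIC measured by broth dilution according to CLSI M7-A7 and M100-S18 standards. Test organism was a ciprofloxacin-resistant, ESBL-expressing clinical isolate.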

[5] = system: Acinetobacter baumanii/haemolyticus: Multidrug-resistant clinical isolate (AB-3167); test: MIC determination (CLSI), AB-3167; format: cell-based; conditions: for MIC: Acinetobacter baumannii
Outline: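 Multidrug-resistant clinical isolate AB-3167 (A. baumannii/haemolyticus) tested for minimum inhibitory concentration following CLSI dilution susceptibility standards M7-A7 and M100-S18.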

[6] = Table 3, read-out: PA LpxC enzyeme IC^50
[7] = P. aeruginosa LpxC enzyme, read-out: PA LpxC enzyeme IC50
[8] = Pseudomonas aeruginosa UI-18 wild-type PA-7
[9] = Escherichia coli EC-1 VOGEL, mouse virulent
[10] = Acinetobacter baumanii/haemolyticus multidrug-resistant clinical isolate AB-3167
[11] = Pseudomonas aeruginosa UI-18 (PA-7)
[12] = Acinetobacter baumanii/haemolyticus AB-3167

| Compound | KP-3700 MIC [4] | IC50 [1, 7] [nM] | PA-7 MIC [2, 8] | EC-1 MIC [3, 9] [µg/mL] | AB-3167 MIC [5, 10] | other results |
| --- | --- | --- | --- | --- | --- | --- |
| COc1cc(COc2ccc(CCC(C)(C(=O)NO)S(C)(=O)=O)cc2)cc(OC)c1 (stereo not shown) [Example 244, 4-{4-[(3,5-dimethoxybenzyl)oxy]phenyl}-N-hydroxy-2-methyl-2-(methylsulfonyl)butanamide] | 16 µg/mL | – | – | – | – | IC50 [1, 6]: 5 nM; MIC ([2]; Table 3, read-out: PA-7 MIC): ≥ 64 µg/mL; MIC ([3]; read-out: EC-1 MIC): 4 µg/mL (≈ 9.14 µM); MIC ([5]; Table 3, read-out: AB-3167 MIC): ≥ 64 µg/mL |
| CC(CCc1ccc(-c2ccc(Cl)cc2)cc1)(C(=O)NO)S(C)(=O)=O (stereo not shown) [Example 44] | 1 µg/mL | 0.0669 | 0.5 µg/mL | 0.5 | 16 µg/mL | – |
| CC(CCc1ccc(OCc2cc(F)ccc2C(F)(F)F)cc1)(C(=O)NO)S(C)(=O)=O (stereo not shown) [Example 280, 4-(4-{[5-fluoro-2-(trifluoromethyl)benzyl]oxy}phenyl)-N-hydroxy-2-methyl-2-(methylsulfonyl)butanamide] | 32 µg/mL | – | – | – | – | IC50 [1, 6]: 13.8 nM; MIC ([2]; Table 3, read-out: PA-7 MIC): 32 µg/mL (≈ 69 µM); MIC ([3]; read-out: EC-1 MIC): 8 µg/mL (≈ 17.3 µM); MIC ([5]; Table 3, read-out: AB-3167 MIC): 32 µg/mL (≈ 69 µM) |
| C[C@@](CCc1ccc(-c2cc3ccccc3[nH]2)cc1)(C(=O)NO)S(C)(=O)=O [Example 218] | 2 µg/mL | 0.034 | – | – | – | PA-7 MIC [2, 11]: 0.5 µg/mL; EC-1 MIC ([3]; Escherichia coli EC-1): 0.5 µg/mL; AB-3167 MIC [5, 12]: 32 µg/mL |
| CC(CCc1ccc(OCC2CCOCC2)cc1)(C(=O)NO)S(C)(=O)=O (stereo not shown) [Example 261, N-hydroxy-2-methyl-2-(methylsulfonyl)-4-[4-(tetrahydro-2H-pyran-4-ylmethoxy)phenyl]butanamide] | ≧64 mg/L | – | – | – | – | IC50 [1, 6]: 4.93 nM; MIC ([2]; Table 3, read-out: PA-7 MIC): 32 µg/mL (≈ 83 µM); MIC ([3]; read-out: EC-1 MIC): ≥ 64 µg/mL; MIC ([5]; Table 3, read-out: AB-3167 MIC): ≥ 64 µg/mL |
| CC(CCc1ccc(OCc2ccc(C(F)(F)F)cc2)cc1)(C(=O)NO)S(C)(=O)=O (stereo not shown) [Example 301, N-hydroxy-2-methyl-2-(methylsulfonyl)-4-(4-{[4-(trifluoromethyl)benzyl]oxy}phenyl)butanamide] | 8 µg/mL | – | – | – | – | IC50 [1, 6]: 2.08 nM; MIC ([2]; Table 3, read-out: PA-7 MIC): 8 µg/mL (≈ 18 µM); MIC ([3]; read-out: EC-1 MIC): 4 µg/mL (≈ 8.98 µM); MIC ([5]; Table 3, read-out: AB-3167 MIC): 4 µg/mL (≈ 8.98 µM) |
| CC(CCc1ccc(-c2ccc(CCO)cc2)cc1)(C(=O)NO)S(C)(=O)=O (stereo not shown) [Example 34] | 8 µg/mL | 0.331 | 4 µg/mL | 4 | ≧64 mg/L | – |
| CC(CCc1ccc(-c2ccc(N3CCN(S(C)(=O)=O)CC3)cc2)cc1)(C(=O)NO)S(C)(=O)=O (stereo not shown) [Example 193] | ≧64 mg/L | 1.08 | ≧64 mg/L | 16 | ≧64 mg/L | – |
| CC(=O)c1ccc(-c2ccc(CCC(C)(C(=O)NO)S(C)(=O)=O)c(F)c2)nc1 (stereo not shown) [Example 187] | 16 µg/mL | 0.632 | 4 µg/mL | 16 | ≧64 mg/L | – |
| CC(O)C(=O)c1ccc(-c2ccc(CCC(C)(C(=O)NO)S(C)(=O)=O)cc2)cc1 (stereo not shown) [Example 194] | 4 µg/mL | 0.195 | 1 µg/mL | 1 | ≧64 mg/L | – |
| CC(CCc1ccc(-c2ccc(OCCO)cc2)cc1)(C(=O)NO)S(C)(=O)=O (stereo not shown) [Example 113] | 8 µg/mL | 0.148 | 1 µg/mL | 2 | ≧64 mg/L | – |
| CC(CCc1ccc(-c2cc(F)c(C#N)c(F)c2)cc1)(C(=O)NO)S(C)(=O)=O (stereo not shown) [Example 127] | 8 µg/mL | 0.15 | 2 µg/mL | 1 | 32 µg/mL | – |
| Cc1cc(F)ccc1-c1ccc(CCC(C)(C(=O)NO)S(C)(=O)=O)cc1 (stereo not shown) [Example 98] | 16 µg/mL | 1.23 | 2 µg/mL | 4 | 32 µg/mL | – |
| CC(CCc1ccc(OCc2ccccc2F)cc1)(C(=O)NO)S(C)(=O)=O (stereo not shown) [Example 242, 4-{4-[(2-fluorobenzyl)oxy]phenyl}-N-hydroxy-2-methyl-2-(methylsulfonyl)butanamide] | 8 µg/mL | – | – | – | – | IC50 [1, 6]: 0.655 nM; MIC ([2]; Table 3, read-out: PA-7 MIC): ≥ 64 µg/mL; MIC ([3]; read-out: EC-1 MIC): 4 µg/mL (≈ 10.1 µM); MIC ([5]; Table 3, read-out: AB-3167 MIC): ≥ 64 µg/mL |
| CC(CCc1ccc(-c2ccc3c(c2)C(=O)NC3)cc1F)(C(=O)NO)S(C)(=O)=O (stereo not shown) [Example 196] | 16 µg/mL | 0.631 | 4 µg/mL | 4 | ≧64 mg/L | – |
| Cc1cc(C#N)ccc1-c1ccc(CCC(C)(C(=O)NO)S(C)(=O)=O)cc1 (stereo not shown) [Example 91] | 8 µg/mL | 0.266 | 2 µg/mL | 2 | 16 µg/mL | – |
| CC(CCc1ccc(COc2ccc(F)cc2)cc1)(C(=O)NO)S(C)(=O)=O (stereo not shown) [Example 228] | 16 µg/mL | 3.28 | – | – | – | PA-7 MIC [2, 11]: 8 µg/mL; EC-1 MIC ([3]; Escherichia coli EC-1): 8 µg/mL; AB-3167 MIC [5, 12]: 16 µg/mL |
| CC(CCc1ccc(-c2cccc(F)c2)cc1)(C(=O)NO)S(C)(=O)=O (stereo not shown) [Example 42] | 4 µg/mL | 0.335 | 0.5 µg/mL | 2 | ≧64 mg/L | – |
| Cc1cc(CCC(C)(C(=O)NO)S(C)(=O)=O)ccc1-c1ccccc1 (stereo not shown) [Example 159] | 16 µg/mL | 5.58 | 8 µg/mL | 4 | 32 µg/mL | – |
| CC(CCc1ccc(-c2ccccc2)cc1F)(C(=O)NO)S(C)(=O)=O (stereo not shown) [Example 2, 4-(3-Fluorobiphenyl-4-yl)-N-hydroxy-2-methyl-2-(methylsulfonyl)butanamide] | 4 µg/mL | – | – | – | – | IC50 ([1]; Table 1, read-out: PA LpxC enzyeme IC50): 0.26 nM; MIC ([2]; Table 1, MIC, read-out: PA-7 (MIC)): 1 µg/mL (≈ 2.74 µM); MIC ([3]; read-out: EC-1: (MIC)): 1 µg/mL (≈ 2.74 µM); MIC ([5]; Table 1, MIC, read-out: AB-3167 (MIC)): 16 µg/mL (≈ 43.8 µM) |

Source: patent publication US8853258B2, “C-linked hydroxamic acid derivatives useful as antibacterial agents” (Pfizer Inc., priority 2009, dated 2014)
